US20050004132A1, “Nitrogenous tetrahydropyridyl-alkyl-heterocycles with tnf activity” (priority 2001, published 2005)
Where a name gives a salt, the structure may show the parent alone.

SMILES | melting point [°C]
Clc1cccc(C2=CCN(CCc3cccc(-c4ccncc4)c3)CC2)n1 (as salt: oxalate) | 183 to 186
Cc1ccc(-c2cccc(CCN3CC=C(c4cccc(C(F)(F)F)c4)CC3)c2)cn1 (as salt: oxalate) | 170 to 173
FC(F)(F)c1cccc(C2=CCN(CCc3cccc(-c4ccccn4)c3)CC2)n1 (as salt: oxalate) | 126 to 129
FC(F)(F)c1cccc(C2=CCN(CCc3cccc(-c4cnccn4)c3)CC2)c1 (as salt: oxalate) [12] | 205 to 207

Other lines, results leading:

melting point [°C] | SMILES
175 to 177 | Fc1cccc(C2=CCN(CCc3cccc(-c4ccccn4)c3)CC2)c1 (as salt: oxalate)
182 to 186 | FC(F)(F)c1cccc(C2=CCN(CCc3cccc(-c4ccccn4)c3)CC2)c1 (as salt: oxalate)
199 to 201 | FC(F)(F)c1cccc(C2=CCN(CCc3cccc(-c4cnccn4)c3)CC2)c1 (as salt: oxalate) [14]
